Patent publication US20070219186A1, “Pyrazolo[1,5-A]pyrimidine derivatives and methods of use thereof” (priority 2006, published 2007)
Like-named read-outs stand apart in the source and are kept apart here.

Biological target: T1, human B-Raf (Homo sapiens, UniProt P15056)
T1 construct: Flag; GST; made in house; host or cells: Sf9 insect cells (B-Raf); E. coli (MEK1-GST)
Assay: B-Raf Kinase to MEK1 ELISA
Assay type: biochemical
Conditions: for inhibition at 10 µM: read-out: % Inhib./10 uM
Text: TITLE: B-Raf Kinase to MEK1 ELISA
PURPOSE: To discover B-Raf Kinase inhibitors that can inhibit growth of tumor cells which contain oncogenic forms of Receptor Tyrosine Kinases or K-Ras, or B-Raf kinase.
Reagents: Flag/GST-tagged recombinant human B-Raf produced in Sf9 insect cells, human non-active Mek-1-GST (recombinant protein produced in E. coli); and a phospho-MEK1 specific poly-clonal Ab from Cell Signaling Technology (cat. #9121).
B-Raf1 Kinase Assay Procedure:
B-Raf-1 is used to phosphorylate GST-MEK1. MEK1 phosphorylation is measured by a phospho-specific antibody (from Cell Signaling Technology, cat. #9121) that detects phosphorylation of two serine residues at positions 217 and 221 on MEK1.
B-Raf Assay Stock Solutions:
1. Assay Dilution Buffer (ADB): 20 mM MOPS, pH 7.2, 25 mM β-glycerol phosphate, 5 mM EGTA, 1 mM sodium orthovanadate, 1 mM dithiothreitol.
2. Magnesium/ATP Cocktail: 200 μM cold ATP and 40 mM magnesium chloride in ADB.
3. Active Kinase: Active B-Raf: used at ˜20 ng per assay point.
4. Non-active GST-MEK1: Use at 100 nM (50 nM final).
6. Anti-GST Ab (Pharmacia)
7. Anti-rabbit Ab/Europium conjugate (Wallac)
1. Add 25 μl of ADB containing B-Raf and Mek per assay (i.e. per well of a 96 well plate)
2. Add 25 μl of 0.2 mM ATP and 40 mM magnesium chloride in ADB.
3. Incubate for 60 minutes at RT in a shaking incubator.
4. Transfer this mixture to an anti-GST Ab coated 96 well plate (Nunc Immunosorb plates coated o/n with a-GST.
5. Incubate for 60 minutes at 30° C. in a shaking incubator
6. Wash 3× with TBST, add Anti-Phospho MEK1 (1:1000)
7. Incubate for 60 minutes at 30° C. in a shaking incubator
8. Wash 3× with TBST, add Anti-rabbit Ab/Europium conjugate (Wallac) (1:500)
9. Incubate for 60 minutes at 30° C. in a shaking incubator
10. Add 100 ul of Wallac Delfia Enhancement Solution and shake for 10 minutes.
11. Read plates in Wallac Victor model Plate Reader.
12. Collect data analyze in Excel for single point and IC50 determinations.
Typically Raf-1 assay is run at cpd concentrations from 10 μM to 30 nM in half log dilutions. (% inhibition is determined for each cpd concentration)

[1] = median, cpd concentrations from 10 μM to 30 nM in half log dilutions, read-out: Median IC50

T1 sequence (P15056 whole entry): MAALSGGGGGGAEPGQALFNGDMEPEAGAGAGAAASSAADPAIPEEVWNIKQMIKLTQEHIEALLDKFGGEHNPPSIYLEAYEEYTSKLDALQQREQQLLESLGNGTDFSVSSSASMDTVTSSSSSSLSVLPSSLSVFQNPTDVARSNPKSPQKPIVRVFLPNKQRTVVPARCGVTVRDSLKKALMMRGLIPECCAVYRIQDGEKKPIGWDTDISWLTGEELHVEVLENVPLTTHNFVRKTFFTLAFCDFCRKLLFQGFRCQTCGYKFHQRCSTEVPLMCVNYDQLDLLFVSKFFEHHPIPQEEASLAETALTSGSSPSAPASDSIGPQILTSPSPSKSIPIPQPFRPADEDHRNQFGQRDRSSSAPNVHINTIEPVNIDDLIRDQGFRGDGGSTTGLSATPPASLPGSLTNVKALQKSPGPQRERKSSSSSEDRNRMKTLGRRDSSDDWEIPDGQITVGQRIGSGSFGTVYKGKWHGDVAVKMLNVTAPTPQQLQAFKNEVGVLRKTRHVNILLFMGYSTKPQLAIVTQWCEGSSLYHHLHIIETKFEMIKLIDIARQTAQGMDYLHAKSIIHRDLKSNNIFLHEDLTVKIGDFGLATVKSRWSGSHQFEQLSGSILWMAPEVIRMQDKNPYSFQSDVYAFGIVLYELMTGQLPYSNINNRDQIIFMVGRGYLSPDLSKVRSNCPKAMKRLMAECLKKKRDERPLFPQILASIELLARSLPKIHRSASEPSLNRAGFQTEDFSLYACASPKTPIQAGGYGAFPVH

SMILES | IC50 [1] | inhibition at 10 µM | IC50 | inhibition at 10 µM (single point assay, 10 uM)
O=C(Nc1cccc(-c2ccnc3c(-c4ccc(CN5CCCC5)cc4)cnn23)c1)c1cccc(C(F)(F)F)c1 [Example 315, N-(3-{3-[4-(pyrrolidin-1-ylmethyl)phenyl]pyrazolo[1,5-a]pyrimidin-7-yl}phenyl)-3-(trifluoromethyl)benzamide] | – | 102% | 20.5 nM | –
Cn1c(C(=O)Nc2cccc(-c3ccnc4cc(-c5ccncc5)nn34)c2)cc2ccccc21 [Example 238, 1-methyl-N-[3-(2-pyridin-4-ylpyrazolo[1,5-a]pyrimidin-7-yl)phenyl]-1H-indole-2-carboxamide] | > 10000 nM | 50% | – | –
O=C(Nc1cccc(-c2ccnc3cc(N4CCC[C@H]4CN4CCCC4)nn23)c1)c1cccc(C(F)(F)F)c1 [Example 211, N-(3-{2-[(2S)-2-(pyrrolidin-1-ylmethyl)pyrrolidin-1-yl]pyrazolo[1,5-a]pyrimidin-7-yl}phenyl)-3-(trifluoromethyl)benzamide] | > 10000 nM | 47% | – | –
CCOC(=O)c1cnn2c(-c3ccc(OCc4ccccc4)c(NC(=O)c4cccc(C(F)(F)F)c4)c3)ccnc12 [Example 90, ethyl 7-(4-(benzyloxy)-3-{[3-(trifluoromethyl)benzoyl]amino}phenyl)pyrazolo[1,5-a]pyrimidine-3-carboxylate] | > 10000 nM | 4% | – | –
CCOC(=O)c1cnn2c(-c3cccc(NC(=O)c4ccc(C(F)(F)F)c(F)c4)c3)ccnc12 [Example 9, ethyl 7-(3-{[3-fluoro-4-(trifluoromethyl)benzoyl]amino}phenyl)pyrazolo[1,5-a]pyrimidine-3-carboxylate] | > 20000 nM | 20% | – | –
CCOC(=O)c1cnn2c(-c3cccc(NC(=O)c4cc(Cl)ccc4C)c3)ccnc12 [Example 74, ethyl 7-{3-[(5-chloro-2-methylbenzoyl)amino]phenyl}pyrazolo[1,5-a]pyrimidine-3-carboxylate] | > 10000 nM | 10% | – | –
O=C(Nc1cccc(-c2ccnc3c(-c4nn[nH]n4)cnn23)c1)c1cccc(C(F)(F)F)c1 [Example 60, N-{3-[3-(2H-tetrazol-5-yl)pyrazolo[1,5-a]pyrimidin-7-yl]phenyl}-3-(trifluoromethyl)benzamide] | > 10000 nM | 1% | – | –
CCOC(=O)c1c(C)nn2c(-c3cccc(NC(=O)c4cccc(C(F)(F)F)c4)c3)ccnc12 [Example 58, Ethyl 2-methyl-7-(3-{[3-(trifluoromethyl)benzoyl]amino}phenyl)pyrazolo[1,5-a]pyrimidine-3-carboxylate] | > 10000 nM | 4% | – | –
CCOC(=O)c1cnn2c(-c3cccc(NC(=O)Nc4nc5ccc(OC)cc5s4)c3)ccnc12 [Example 244, ethyl7-[3-({[(6-methoxy-1,3-benzothiazol-2-yl)amino]carbonyl}amino)phenyl]pyrazolo[1,5-a]pyrimidine-3-carboxylate] | > 10000 nM | 24% | – | –
O=C(Nc1cccc(-c2ccnc3c(C#CCCCN4CCOCC4)cnn23)c1)c1cccc(C(F)(F)F)c1 [Example 282, N-{3-[3-(5-morpholin-4-ylpent-1-yn-1-yl)pyrazolo[1,5-a]pyrimidin-7-yl]phenyl}-3-(trifluoromethyl)benzamide] | – | 79% | 551 nM | –
CCOC(=O)c1cnn2c(-c3ccc(N4CC(C)OC(C)C4)c(NC(=O)c4cccc(C(F)(F)F)c4)c3)ccnc12 (centres unmarked) [Example 87, ethyl 7-(4-(2,6-dimethylmorpholin-4-yl)-3-{[3-(trifluoromethyl)benzoyl]amino}phenyl)pyrazolo[1,5-a]pyrimidine-3-carboxylate] | > 10000 nM | 9% | – | –
CCOC(=O)c1cnn2c(-c3cccc(NC(=O)c4cnc(C)cn4)c3)ccnc12 [Example 216, Ethyl7-(3-{[(5-methylpyrazin-2-yl)carbonyl]amino}phenyl)pyrazolo[1,5-a]pyrimidine-3-carboxylate] | > 10000 nM | 3% | – | –
O=C(Nc1cccc(-c2ccnc3ccnn23)c1)c1cccc(C(F)(F)F)c1 [Example 153, N-(3-pyrazolo[1,5-a]pyrimidin-7-ylphenyl)-3-(trifluoromethyl)benzamide] | > 10000 nM | 31% | – | –
CC(C)(C)OC(=O)NC1CCN(c2cc3nccc(-c4cccc(NC(=O)c5cccc(C(F)(F)F)c5)c4)n3n2)C1 (centres unmarked) [Example 212, tert-butyl {1-[7-(3-{[3-(trifluoromethyl)benzoyl]amino}phenyl)pyrazolo[1,5-a]pyrimidin-2-yl]pyrrolidin-3-yl}carbamate] | > 10000 nM | 22% | – | –
CCOC(=O)c1cnn2c(-c3cccc(NC(=O)Nc4ccc(Cl)cc4Cl)c3)ccnc12 [Example 14, ethyl 7-[3-({[(2,4-dichlorophenyl)amino]carbonyl}amino)phenyl]pyrazolo[1,5-a]pyrimidine-3-carboxylate] | > 10000 nM | 0% | – | –

Results, then the molecule that gave them:

IC50 [1] | inhibition at 10 µM | IC50 | inhibition at 10 µM (single point assay, 10 uM) | SMILES
> 10000 nM | 24% | – | – | Cc1ccc(C(=O)Nc2cccc(-c3ccnc4cc(-c5cccs5)nn34)c2)cc1C(F)(F)F [Example 117, 4-methyl-N-{3-[2-(2-thienyl)pyrazolo[1,5-a]pyrimidin-7-yl]phenyl}-3-(trifluoromethyl)benzamide]
65.5 nM | 98% | – | – | O=C(Nc1cccc(-c2ccnc3cc(-c4ccnc(NCCCn5ccnc5)c4)nn23)c1)c1cccc(C(F)(F)F)c1 [Example 262, N-{3-[2-(2-{[3-(1H-imidazol-1-yl)propyl]amino}pyridin-4-yl)pyrazolo[1,5-a]pyrimidin-7-yl]phenyl}-3-(trifluoromethyl)benzamide]
1920 nM | 60% | – | – | O=C(Nc1cccc(-c2ccnc3c(-c4ccncc4)cnn23)c1)c1ccc(Cl)c(C(F)(F)F)c1 [Example 191, 4-chloro-N-[3-(3-pyridin-4-ylpyrazolo[1,5-a]pyrimidin-7-yl)phenyl]-3-(trifluoromethyl)benzamide]
30 nM | 98% | – | – | O=C(Nc1cccc(-c2ccnc3cc(-c4ccncc4)nn23)c1)Nc1ccc(F)c(C(F)(F)F)c1 [Example 131, N-[4-fluoro-3-(trifluoromethyl)phenyl]-N′-[3-(2-pyridin-4-ylpyrazolo[1,5-a]pyrimidin-7-yl)phenyl]urea]
900 nM | 67% | – | – | O=C(Nc1cccc(-c2ccnc3c(C(=O)OCC(F)(F)F)cnn23)c1)c1cccc(C(F)(F)F)c1 [Example 125, 2,2,2-trifluoroethyl 7-(3-{[3-(trifluoromethyl)benzoyl]amino}phenyl)pyrazolo[1,5-a]pyrimidine-3-carboxylate]
4490 nM | 73% | – | – | CCOC(=O)c1cnn2c(-c3cccc(NC(=O)c4nccc5ccccc45)c3)ccnc12 [Example 218, ethyl7-{3-[(isoquinolin-1-ylcarbonyl)amino]phenyl}pyrazolo[1,5-a]pyrimidine-3-carboxylate]
110 nM | 96% | – | – | O=C(Nc1cccc(-c2ccnc3cc(-c4ccnc(NCCN5CCNC5=O)c4)nn23)c1)c1cccc(C(F)(F)F)c1 [Example 268, N-{3-[2-(2-{[2-(2-oxoimidazolidin-1-yl)ethyl]amino}pyridin-4-yl)pyrazolo[1,5-a]pyrimidin-7-yl]phenyl}-3-(trifluoromethyl)benzamide]
3100 nM | 71% | – | – | CCOC(=O)c1cnn2c(-c3cccc(NC(=O)Nc4ccc(C(F)(F)F)cc4)c3)ccnc12 [Example 35, ethyl 7-{3-[({[4-(trifluoromethyl)phenyl]amino}carbonyl)amino]phenyl}pyrazolo[1,5-a]pyrimidine-3-carboxylate]
2410 nM | 58% | – | – | O=C(Nc1cccc(-c2ccnc3c(Br)cnn23)c1)Nc1ccc(Cl)c(Cl)c1 [Example 168, N-[3-(3-bromopyrazolo[1,5-a]pyrimidin-7-yl)phenyl]-N′-(3,4-dichlorophenyl)urea]
300 nM | – | – | 93% | CCOC(=O)c1cnn2c(-c3cccc(NC(=O)Nc4ccc(Cl)c(C(F)(F)F)c4)c3)ccnc12 [Example 11, ethyl 7-{3-[({[4-chloro-3-(trifluoromethyl)phenyl]amino}carbonyl)amino]phenyl}pyrazolo[1,5-a]pyrimidine-3-carboxylate]
